# In PubChem BioAssay (NCI):
#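 Briefly, cells in 96-well plates were exposed to five compound concentrations for 48 h, and endpoints were estimated by linear interpolation. The concentration for 50% growth inhibition is given as GI50. TGI: total growth inhibition.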
# Legend:
# Assay in all cases: growth of human tumour cells (NCI), 48 h
# SF-295 CNS = system: SF-295 CNS
# MDA-MB-231 breast = system: MDA-MB-231 breast
# OVCAR-3 ovarian = system: OVCAR-3 ovarian
# SK-MEL-28 melanoma = system: SK-MEL-28 melanoma
# K-562 leukemia = system: K-562 leukemia
# NCI-H226 lung = system: NCI-H226 lung
# MDA-MB-435 = system: MDA-MB-435
# HL-60(TB) leukemia = system: HL-60(TB) leukemia
# RXF 393 renal = system: RXF 393 renal
# A549 NSCLC = system: A549 NSCLC
# SK-MEL-5 melanoma = system: SK-MEL-5 melanoma
# NCI/ADR-RES ovarian = system: NCI/ADR-RES ovarian
# MOLT-4 leukemia = system: MOLT-4 leukemia
# SK-MEL-2 melanoma = system: SK-MEL-2 melanoma
# HOP-92 NSCLC = system: HOP-92 NSCLC
# RPMI-8226 leukemia = system: RPMI-8226 leukemia
# SF-539 CNS = system: SF-539 CNS
# U251 CNS = system: U251 CNS
# HS 578T breast = system: HS 578T breast
# HCT-15 colon = system: HCT-15 colon
# SNB-75 CNS = system: SNB-75 CNS
# HOP-62 NSCLC = system: HOP-62 NSCLC
# SR leukemia = system: SR leukemia
# OVCAR-8 ovarian = system: OVCAR-8 ovarian
# NCI-H460 lung = system: NCI-H460 lung
# KM12 colon = system: KM12 colon
# MALME-3M melanoma = system: MALME-3M melanoma
# ACHN renal = system: ACHN renal
# HCC-2998 colon = system: HCC-2998 colon
# SW-620 colon = system: SW-620 colon
# CCRF-CEM leukemia = system: CCRF-CEM leukemia
# COLO 205 colon = system: COLO 205 colon
# OVCAR-5 ovarian = system: OVCAR-5 ovarian
# IGROV1 ovarian = system: IGROV1 ovarian
# SK-OV-3 ovarian = system: SK-OV-3 ovarian
# UO-31 renal = system: UO-31 renal
# LOX IMVI melanoma = system: LOX IMVI melanoma
# T-47D breast = system: T-47D breast
# BT-549 breast = system: BT-549 breast
# NCI-H23 lung = system: NCI-H23 lung
# EKVX NSCLC = system: EKVX NSCLC
# A498 renal = system: A498 renal
# SNB-19 CNS = system: SNB-19 CNS
# UACC-257 melanoma = system: UACC-257 melanoma
# NCI-H522 lung = system: NCI-H522 lung
# DU-145 prostate = system: DU-145 prostate
# HCT-116 colon = system: HCT-116 colon
# M14 melanoma = system: M14 melanoma
# TK-10 renal = system: TK-10 renal
# HT29 colon = system: HT29 colon
# MCF7 breast = system: MCF7 breast
# CAKI-1 renal = system: CAKI-1 renal
# OVCAR-4 ovarian = system: OVCAR-4 ovarian
# SF-268 CNS = system: SF-268 CNS
smiles,measurement,setting,value
COc1ccc(/C=C/C2C(C#N)=C(N)OC3=C2C(=O)CCC3)cc1 (stereo not drawn),GI50,SF-295 CNS,21.5 µM
same,TGI,SF-295 CNS,50.1 µM
same,GI50,MDA-MB-231 breast,2.54 µM
same,TGI,MDA-MB-231 breast,8.79 µM
same,GI50,OVCAR-3 ovarian,34 µM
same,TGI,OVCAR-3 ovarian,> 100 µM
same,GI50,SK-MEL-28 melanoma,17.9 µM
same,TGI,SK-MEL-28 melanoma,35.3 µM
same,GI50,K-562 leukemia,24.4 µM
same,TGI,K-562 leukemia,> 100 µM
same,GI50,NCI-H226 lung,15 µM
same,TGI,NCI-H226 lung,34 µM
same,GI50,MDA-MB-435,18.4 µM
same,TGI,MDA-MB-435,61.3 µM
same,GI50,HL-60(TB) leukemia,5.28 µM
same,TGI,HL-60(TB) leukemia,63.2 µM
same,GI50,RXF 393 renal,18.7 µM
same,TGI,RXF 393 renal,35.9 µM
same,GI50,A549 NSCLC,32.4 µM
same,TGI,A549 NSCLC,97 µM
same,GI50,SK-MEL-5 melanoma,18.1 µM
same,TGI,SK-MEL-5 melanoma,32.8 µM
same,GI50,NCI/ADR-RES ovarian,33.9 µM
same,TGI,NCI/ADR-RES ovarian,> 100 µM
same,GI50,MOLT-4 leukemia,4.23 µM
same,TGI,MOLT-4 leukemia,19.7 µM
same,GI50,SK-MEL-2 melanoma,38.5 µM
same,TGI,SK-MEL-2 melanoma,> 100 µM
same,GI50,HOP-92 NSCLC,23.6 µM
same,TGI,HOP-92 NSCLC,46.9 µM
same,GI50,RPMI-8226 leukemia,2.14 µM
same,TGI,RPMI-8226 leukemia,5.18 µM
same,GI50,SF-539 CNS,31.3 µM
same,TGI,SF-539 CNS,80.1 µM
same,GI50,U251 CNS,12.5 µM
same,TGI,U251 CNS,25 µM
same,GI50,HS 578T breast,63 µM
same,TGI,HS 578T breast,> 100 µM
same,GI50,HCT-15 colon,21.4 µM
same,TGI,HCT-15 colon,> 100 µM
same,GI50,SNB-75 CNS,19.9 µM
same,TGI,SNB-75 CNS,37.4 µM
same,GI50,HOP-62 NSCLC,29.6 µM
same,TGI,HOP-62 NSCLC,62.7 µM
same,GI50,SR leukemia,2.71 µM
same,TGI,SR leukemia,16 µM
same,GI50,OVCAR-8 ovarian,21.2 µM
same,TGI,OVCAR-8 ovarian,> 100 µM
same,GI50,NCI-H460 lung,16.9 µM
same,TGI,NCI-H460 lung,35 µM
same,GI50,KM12 colon,13.5 µM
same,TGI,KM12 colon,28.6 µM
same,GI50,MALME-3M melanoma,31.9 µM
same,TGI,MALME-3M melanoma,87.1 µM
same,GI50,ACHN renal,17.7 µM
same,TGI,ACHN renal,33.7 µM
same,GI50,HCC-2998 colon,18.2 µM
same,TGI,HCC-2998 colon,32.9 µM
same,GI50,SW-620 colon,29.7 µM
same,TGI,SW-620 colon,> 100 µM
same,GI50,CCRF-CEM leukemia,4.05 µM
same,TGI,CCRF-CEM leukemia,16.6 µM
same,GI50,COLO 205 colon,21.1 µM
same,TGI,COLO 205 colon,41.2 µM
same,GI50,OVCAR-5 ovarian,18.8 µM
same,TGI,OVCAR-5 ovarian,34.5 µM
same,GI50,IGROV1 ovarian,22 µM
same,TGI,IGROV1 ovarian,41.3 µM
same,GI50,SK-OV-3 ovarian,25.1 µM
same,TGI,SK-OV-3 ovarian,77.6 µM
same,GI50,UO-31 renal,18.2 µM
same,TGI,UO-31 renal,33.1 µM
same,GI50,LOX IMVI melanoma,11.4 µM
same,TGI,LOX IMVI melanoma,23.4 µM
same,GI50,T-47D breast,29.4 µM
same,TGI,T-47D breast,> 100 µM
same,GI50,BT-549 breast,31.9 µM
same,TGI,BT-549 breast,> 100 µM
same,GI50,NCI-H23 lung,20.1 µM
same,TGI,NCI-H23 lung,47.7 µM
same,GI50,EKVX NSCLC,38 µM
same,TGI,EKVX NSCLC,> 100 µM
same,GI50,A498 renal,22.6 µM
same,TGI,A498 renal,41 µM
same,GI50,SNB-19 CNS,19.8 µM
same,TGI,SNB-19 CNS,43.1 µM
same,GI50,UACC-257 melanoma,23 µM
same,TGI,UACC-257 melanoma,49.5 µM
same,GI50,NCI-H522 lung,18.3 µM
same,TGI,NCI-H522 lung,38.9 µM
same,GI50,DU-145 prostate,15.9 µM
same,TGI,DU-145 prostate,33.7 µM
same,GI50,HCT-116 colon,7.39 µM
same,TGI,HCT-116 colon,20 µM
same,GI50,M14 melanoma,20.8 µM
same,TGI,M14 melanoma,49.6 µM
same,GI50,TK-10 renal,26.9 µM
same,TGI,TK-10 renal,63.8 µM
same,GI50,HT29 colon,7.9 µM
same,TGI,HT29 colon,20.2 µM
same,GI50,MCF7 breast,12.1 µM
same,TGI,MCF7 breast,26.4 µM
same,GI50,CAKI-1 renal,40.8 µM
same,TGI,CAKI-1 renal,97.3 µM
same,GI50,OVCAR-4 ovarian,22.8 µM
same,TGI,OVCAR-4 ovarian,66.5 µM
same,GI50,SF-268 CNS,13.8 µM
same,TGI,SF-268 CNS,30.5 µM
